US7928107B2, “Quinazolines useful as modulators of ion channels” (Vertex Pharmaceuticals Incorporated, priority 2004, dated 2011)

Each compound was assayed against NaV 1.8 channel (Homo sapiens, UniProt Q9Y5Y9) (assay: Activity against NaV 1.8 channel (optical membrane potential assay)).
Type: cell-based
Summary of the method: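 FRET membrane-potential assay (coumarin CC2-DMPE donor, oxonol DiSBAC2(3) acceptor plus veratridine) on VIPR; compound added with oxonol for 20–30 min before Na+ add-back stimulation. Activity from background-subtracted 460/580 nm ratio change (baseline 2–7 s, response 15–24 s) relative to tetracaine positive and drug-free negative controls.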

Chain of NaV 1.8 channel (Q9Y5Y9 whole entry): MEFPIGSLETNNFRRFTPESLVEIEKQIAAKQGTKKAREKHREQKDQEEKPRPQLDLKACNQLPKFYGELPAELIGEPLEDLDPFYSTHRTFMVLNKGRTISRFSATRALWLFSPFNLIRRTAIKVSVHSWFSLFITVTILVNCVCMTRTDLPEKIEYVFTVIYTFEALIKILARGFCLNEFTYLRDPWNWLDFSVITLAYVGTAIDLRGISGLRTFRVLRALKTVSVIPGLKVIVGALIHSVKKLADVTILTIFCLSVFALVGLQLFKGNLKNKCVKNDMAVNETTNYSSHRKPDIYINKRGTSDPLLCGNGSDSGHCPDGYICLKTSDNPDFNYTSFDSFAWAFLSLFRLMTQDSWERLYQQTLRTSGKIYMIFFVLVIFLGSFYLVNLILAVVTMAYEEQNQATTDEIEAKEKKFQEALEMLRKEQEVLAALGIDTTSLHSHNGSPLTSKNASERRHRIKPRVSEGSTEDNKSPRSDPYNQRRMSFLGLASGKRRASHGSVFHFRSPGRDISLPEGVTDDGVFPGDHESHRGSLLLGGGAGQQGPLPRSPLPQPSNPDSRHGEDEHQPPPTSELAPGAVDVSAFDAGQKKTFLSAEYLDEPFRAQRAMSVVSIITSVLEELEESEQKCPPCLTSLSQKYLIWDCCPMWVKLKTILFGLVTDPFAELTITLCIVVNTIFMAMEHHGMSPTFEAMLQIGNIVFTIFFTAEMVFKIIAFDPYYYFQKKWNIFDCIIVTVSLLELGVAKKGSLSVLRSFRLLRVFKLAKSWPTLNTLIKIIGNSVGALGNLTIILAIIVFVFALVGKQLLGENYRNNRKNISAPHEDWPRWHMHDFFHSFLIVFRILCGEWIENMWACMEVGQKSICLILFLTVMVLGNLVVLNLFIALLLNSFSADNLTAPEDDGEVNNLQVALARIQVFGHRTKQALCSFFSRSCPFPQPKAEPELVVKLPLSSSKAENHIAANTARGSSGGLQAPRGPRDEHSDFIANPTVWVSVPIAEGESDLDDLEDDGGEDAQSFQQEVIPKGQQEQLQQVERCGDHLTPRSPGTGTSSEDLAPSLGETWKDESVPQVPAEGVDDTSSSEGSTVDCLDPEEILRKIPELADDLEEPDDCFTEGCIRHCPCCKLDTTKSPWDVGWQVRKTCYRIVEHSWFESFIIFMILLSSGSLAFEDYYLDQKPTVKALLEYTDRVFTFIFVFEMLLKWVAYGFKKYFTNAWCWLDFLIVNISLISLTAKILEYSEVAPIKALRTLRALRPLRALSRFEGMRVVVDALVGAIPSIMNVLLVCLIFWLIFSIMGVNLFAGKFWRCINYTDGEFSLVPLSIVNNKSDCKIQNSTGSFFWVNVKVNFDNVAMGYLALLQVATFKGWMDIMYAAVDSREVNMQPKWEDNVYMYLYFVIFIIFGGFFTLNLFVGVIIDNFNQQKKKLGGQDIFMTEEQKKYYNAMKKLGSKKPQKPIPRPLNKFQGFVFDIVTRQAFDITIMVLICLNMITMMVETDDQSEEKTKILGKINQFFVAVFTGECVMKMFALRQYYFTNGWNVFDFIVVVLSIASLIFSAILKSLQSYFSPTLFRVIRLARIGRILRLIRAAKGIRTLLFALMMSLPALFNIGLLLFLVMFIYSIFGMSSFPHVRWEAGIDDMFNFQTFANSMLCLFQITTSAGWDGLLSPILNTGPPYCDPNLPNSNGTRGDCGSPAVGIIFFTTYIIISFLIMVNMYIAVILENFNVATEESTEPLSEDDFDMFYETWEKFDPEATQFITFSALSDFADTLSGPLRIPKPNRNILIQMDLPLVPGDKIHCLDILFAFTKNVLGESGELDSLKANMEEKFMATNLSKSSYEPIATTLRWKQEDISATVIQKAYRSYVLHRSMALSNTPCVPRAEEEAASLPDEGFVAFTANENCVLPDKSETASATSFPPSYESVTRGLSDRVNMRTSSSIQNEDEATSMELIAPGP

| Structure (SMILES) | IC50 |
| --- | --- |
| O=C(CC1CCOCC1)N[C@@H]1CCN(c2nc(-c3ccccc3O)nc3ccc(F)cc23)C1 [Example 338, N—((R)-1-(6-Fluoro-2-(2-hydroxyphenyl)quinazolin-4-yl)pyrrolidin-3-yl)-2-(tetrahydro-2H-pyran-4-yl)acetamide] | > 10 µM |
| CCC(C)(O)C(=O)NC1CCN(c2nc(-c3ccccc3O)nc3ccccc23)CC1 (stereo not drawn) [Example 242, 2-Hydroxy-N-(1-(2-(2-hydroxyphenyl)quinazolin-4-yl)piperidin-4-yl)-2-methylbutanamide] | 2 to 10 µM |
| Cc1ccc2c(N3CCC(NC(=O)[C@H](O)CC(C)C)CC3)nc(-c3ccccc3O)nc2c1 [Example 267] | > 10 µM |
| Cc1ccc2c(N3CCN(C(=O)[C@H](O)CC(C)C)C[C@@H]3C(C)C)nc(-c3ccccc3O)nc2c1 [Example 155, (R)-2-Hydroxy-1-((S)-4-(2-(2-hydroxyphenyl)-7-methylquinazolin-4-yl)-3-isopropylpiperazin-1-yl)-4-methylpentan-1-one] | > 10 µM |
| Cc1ccc2c(N3CCC(NC(=O)C4CCOCC4)CC3)nc(-c3ccccc3O)nc2c1 [Example 220, Tetrahydro-N-(1-(2-(2-hydroxyphenyl)-7-methylquinazolin-4-yl)piperidin-4-yl)-2H-pyran-4-carboxamide] | > 10 µM |
| Cc1ccc2c(N3CCN(C(=O)OCc4ccncc4)CC3)nc(-c3ccccc3O)nc2c1 [Example 152, (Pyridin-4-yl)methyl 4-(2-(2-hydroxyphenyl)-7-methylquinazolin-4-yl)piperazine-1-carboxylate] | > 10 µM |
| Cc1ccc2c(N3CCC(CNC(=O)OCC(C)C)CC3)nc(-c3ccccc3O)nc2c1 [Example 278] | > 10 µM |
| Cc1ccc2c(N3CC[C@@H](CNC(=O)O[C@H]4CCOC4)C3)nc(-c3ccccc3O)nc2c1 [Example 305, (S)-Tetrahydrofuran-3-yl ((S)-1-(2-(2-hydroxyphenyl)-7-methylquinazolin-4-yl)pyrrolidin-3-yl)methylcarbamate] | 2 to 10 µM |
| Cc1ccc2c(N3CC(C(=O)NCc4cccnc4)C3)nc(-c3ccccc3O)nc2c1 [Example 402, 1-(2-(2-Hydroxyphenyl)-7-methylquinazolin-4-yl)-N-((pyridin-3-yl)methyl)azetidine-3-carboxamide] | > 10 µM |
| O=C(N[C@@H]1CCN(c2nc(-c3ccccc3O)nc3ccc(F)cc23)C1)C(O)c1ccc(F)cc1 (stereo partly drawn) [Example 358, N—((R)-1-(6-Fluoro-2-(2-hydroxyphenyl)quinazolin-4-yl)pyrrolidin-3-yl)-2-(4-fluorophenyl)-2-hydroxyacetamide] | > 10 µM |
| Cc1ccc2c(N3CCN(C(=O)OCC4CCOC4)CC3)nc(-c3c(O)cccc3F)nc2c1 (stereo not drawn) [Example 162, (Tetrahydrofuran-3-yl)methyl 4-(2-(2-fluoro-6-hydroxyphenyl)-7-methylquinazolin-4-yl)piperazine-1-carboxylate] | 2 to 10 µM |
| Cc1ccc2c(N3CC[C@@H](NC(=O)c4ccncc4)C3)nc(-c3ccccc3O)nc2c1 [Example 353, N—((R)-1-(2-(2-Hydroxyphenyl)-7-methylquinazolin-4-yl)pyrrolidin-3-yl)isonicotinamide] | > 10 µM |
| Cc1ccc2c(N3CC[C@@H](CNC(=O)OC(C)C)C3)nc(-c3c(O)cccc3F)nc2c1 [Example 371, Isopropyl ((S)-1-(2-(2-fluoro-6-hydroxyphenyl)-7-methylquinazolin-4-yl)pyrrolidin-3-yl)methylcarbamate] | < 2 µM |
| Cc1ccc2c(N3CC[C@@H](NC(=O)c4ccccn4)C3)nc(-c3ccccc3O)nc2c1 [Example 354, N—((R)-1-(2-(2-Hydroxyphenyl)-7-methylquinazolin-4-yl)pyrrolidin-3-yl)picolinamide] | 2 to 10 µM |
| Cc1ccc2c(N3CC[C@@H](NC(=O)OCc4cccc5c4OCO5)C3)nc(-c3ccccc3O)nc2c1 [Example 321, (Benzo[d][1,3]dioxol-7-yl)methyl (R)-1-(2-(2-hydroxyphenyl)-7-methylquinazolin-4-yl)pyrrolidin-3-ylcarbamate] | > 10 µM |
| Cc1ccc2c(N3CCCC(CNC(=O)C4CC4)C3)nc(-c3ccccc3O)nc2c1 (stereo not drawn) [Example 212, N—((1-(2-(2-Hydroxyphenyl)-7-methylquinazolin-4-yl)piperidin-3-yl)methyl)cyclopropanecarboxamide] | > 10 µM |

Next, values leading:

| IC50 | Structure (SMILES) |
| --- | --- |
| > 10 µM | CC(C)C[C@@H](O)C(=O)N1CCN(c2nc(-c3c(O)cccc3Cl)nc3ccccc23)CC1 [Example 146, (R)-1-(4-(2-(2-Chloro-6-hydroxyphenyl)quinazolin-4-yl)piperazin-1-yl)-2-hydroxy-4-methylpentan-1-one] |
| 2 to 10 µM | O=C(O[C@H]1CCOC1)N1CCN(c2nc(-c3ccccc3O)nc3ccc(F)cc23)CC1 [Example 117, (S)-Tetrahydrofuran-3-yl 4-(6-fluoro-2-(2-hydroxyphenyl)quinazolin-4-yl)piperazine-1-carboxylate] |
| < 2 µM | Cc1ccc2c(N3CCC(NC(=O)OC(C)(C)C)CC3)nc(-c3ccccc3O)nc2c1 [Example 259, {1-[2-(2-Hydroxy-phenyl)-7-methyl-quinazolin-4-yl]-piperidin-4-yl}-carbamic acid tert-butyl ester] |
| 2 to 10 µM | CC(C)C[C@@H](O)C(=O)N1CCN(c2nc(-c3ccccc3O)nc3ccccc23)CC1 [Example 102, (R)-2-Hydroxy-1-(4-(2-(2-hydroxyphenyl)quinazolin-4-yl)piperazin-1-yl)-4-methylpentan-1-one] |
| > 10 µM | Cc1ccc2c(N3CCN(C(=O)[C@@H](O)C(C)(C)C)CC3)nc(-c3c(O)cccc3F)nc2c1 [Example 138, (S)-1-(4-(2-(2-Fluoro-6-hydroxyphenyl)-7-methylquinazolin-4-yl)piperazin-1-yl)-2-hydroxy-3,3-dimethylbutan-1-one] |
| > 10 µM | CC(C)(C)C[C@@H](O)C(=O)N1CCN(c2nc(-c3ccccc3O)nc3ccc(F)cc23)CC1 [Example 111, (R)-1-(4-(6-Fluoro-2-(2-hydroxyphenyl)quinazolin-4-yl)piperazin-1-yl)-2-hydroxy-4,4-dimethylpentan-1-one] |
| > 10 µM | Cc1ccc2c(N3CCC(NC(=O)C(C)(C)O)CC3)nc(-c3ccccc3O)nc2c1 [Example 233, 2-Hydroxy-N-(1-(2-(2-hydroxyphenyl)-7-methylquinazolin-4-yl)piperidin-4-yl)-2-methylpropanamide] |
| 2 to 10 µM | O=C(O[C@@H]1CCOC1)N1CCN(c2nc(-c3ccccc3O)nc3ccc(F)cc23)CC1 [Example 148, (R)-Tetrahydrofuran-3-yl 4-(6-fluoro-2-(2-hydroxyphenyl)quinazolin-4-yl)piperazine-1-carboxylate] |
| > 10 µM | Cc1ccc2c(N3CCN(C(=O)[C@@H](O)Cc4cnc[nH]4)CC3)nc(-c3ccccc3O)nc2c1 [Example 141, (S)-2-Hydroxy-1-(4-(2-(2-hydroxyphenyl)-7-methylquinazolin-4-yl)piperazin-1-yl)-3-(1H-imidazol-5-yl)propan-1-one] |
| 2 to 10 µM | CCCCC(O)C(=O)N1CCN(c2nc(-c3ccccc3O)nc3cc(C)ccc23)CC1 (stereo not drawn) [Example 120] |
| 2 to 10 µM | Cc1ccc2c(N3CCN(C(=O)[C@H](O)CC(C)C)CC3)nc(-c3ccccc3O)nc2c1 [Example 168, (R)-2-Hydroxy-1-(4-(2-(2-hydroxyphenyl)-7-methylquinazolin-4-yl)piperazin-1-yl)-4-methylpentan-1-one] |
